This note sets out measurements from publication PMC7334075 (Molecular carcinogenesis, 2020).

Structures are written as SMILES.

The assay addresses KRAS-G12V (Homo sapiens, UniProt P01116, G12V). Briefly: DSF. It is filed as binding.

As to `C=C(C)[C@@H]1CC[C@]2(C)CC[C@]3(C)[C@H](CC[C@@H]4[C@@]5(C)CC[C@H](O)C(C)(C)[C@@H]5CC[C@]43C)[C@@H]12` [Lupeol, Lup-20(29)-en-3b-ol], the “DSF (SYPRO Orange) with GDP-loaded protein; no Kd” value was “(loaded with GDP) suggesting binding of Lupeol to both wt-KRAS and KRAS-^G12V protein”.
